The values that follow come from US12398154B2, “Azaquinazoline pan-KRas inhibitors” (Mirati Therapeutics, Inc., priority 2020, dated 2025).

Test [1] has as its system pERK in H358 cells. The test can be described thus: Inhibition of KRas phosphorylation of ERK (Cisbio HTRF pERK assay). The settings on record: Homo sapiens, NCI-H358, read-out: Inhibition (HTRF IC50) of KRas-mediated Phosphorylation of ERK, H358. (In general: In TR-FRET formats the signal depends on donor and acceptor labels being close together.)
In test [2] the test system is pERK in H727 cells. The description is as above. To be noted: Homo sapiens, NCI-H727, read-out: Inhibition (HTRF IC50) of KRas-mediated Phosphorylation of ERK, H727.
Test [3] relates to pERK in A549 cells. Described as above. The settings on record: Homo sapiens, A549, read-out: Inhibition (HTRF IC50) of KRas-mediated Phosphorylation of ERK, A549.
Test [4] deals with pERK in H460 cells. The test is described as above. To be noted: Homo sapiens, NCI-H460, read-out: Inhibition (HTRF IC50) of KRas-mediated Phosphorylation of ERK, H460.
Test [5] relates to pERK in HCT116 cells. The description is as above. The settings on record: Homo sapiens, HCT-116, read-out: Inhibition (HTRF IC50) of KRas-mediated Phosphorylation of ERK, HCT116.
Test [6] has as its target KRas G12V (Homo sapiens, UniProt P01116, G12V). The test can be described thus: biochemical.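 Also: KRas binding measured by TR-FRET displacement at room temperature, IC50 fitted from percent of control values.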
Test [7] has as its target KRas G12D (Homo sapiens, UniProt P01116, G12D). The test can be described thus: biochemical.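 Also: TR-FRET displacement binding assay on KRas, read after a one-hour incubation at room temperature, IC50 fitted from percent-of-control values.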
Test [8] deals with KRas G12R (Homo sapiens, UniProt P01116, G12R). The test can be described thus: biochemical.
Test [9] concerns pERK in MKN1 cells. The test can be described thus: Inhibition of KRas phosphorylation of ERK (Cisbio HTRF pERK assay). The settings on record: Homo sapiens, MKN-1, 3 h, read-out: Inhibition (HTRF IC50) of KRas-mediated Phosphorylation of ERK, MKN1.
In test [10] the test system is pERK in PSN1 cells. Described as above. The settings on record: Homo sapiens, PSN1, 3 h, read-out: Inhibition (HTRF IC50) of KRas-mediated Phosphorylation of ERK, PSN1.
In test [11] the test system is pERK in ASPC1 cells. The description is as above. The settings on record: Homo sapiens, ASPC1, read-out: Inhibition (HTRF IC50) of KRas-mediated Phosphorylation of ERK, AsPC-1.

The structures appear in SMILES notation.

Sequence of KRas G12V (P01116 1-169 isoform P01116-2 G12V): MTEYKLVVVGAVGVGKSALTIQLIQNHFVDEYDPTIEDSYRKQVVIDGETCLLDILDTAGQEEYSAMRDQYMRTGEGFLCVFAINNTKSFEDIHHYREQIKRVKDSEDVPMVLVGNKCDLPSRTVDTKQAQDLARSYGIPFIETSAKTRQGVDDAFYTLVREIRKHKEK
Sequence of KRas G12D (P01116 1-169 isoform P01116-2 G12D): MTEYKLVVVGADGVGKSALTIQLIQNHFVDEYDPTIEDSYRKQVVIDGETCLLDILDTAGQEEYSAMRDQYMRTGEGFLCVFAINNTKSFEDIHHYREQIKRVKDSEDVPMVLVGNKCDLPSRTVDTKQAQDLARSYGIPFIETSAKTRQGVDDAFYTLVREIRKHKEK
Sequence of KRas G12R (P01116 1-169 isoform P01116-2 G12R): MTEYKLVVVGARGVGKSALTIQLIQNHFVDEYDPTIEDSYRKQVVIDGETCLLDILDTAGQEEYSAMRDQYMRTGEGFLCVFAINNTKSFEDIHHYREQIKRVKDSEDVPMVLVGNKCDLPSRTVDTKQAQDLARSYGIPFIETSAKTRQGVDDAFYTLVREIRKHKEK

Broadly, the IC50 is the concentration needed to halve the response being measured. As for `CCc1c(F)ccc2cc(O)cc(-c3ncc4c(N5CCCc6nn(C(=O)N(C)C)cc6C5)nc(OC[C@@]56CCCN5C[C@H](F)C6)nc4c3F)c12` [Example 353, 5-(7-(8-ethyl-7-fluoro-3-hydroxynaphthalen-1-yl)-8-fluoro-2-(((2R,7aS)-2-fluorohexahydro-1H-pyrrolizin-7a-yl)methoxy)pyrido[4,3-d]pyrimidin-4-yl)-N,N-dimethyl-5,6,7,8-tetrahydropyrazolo[4,3-c]azepine-2(4H)-carboxamide], the IC50 in test [1] is 19 nM; in [2], 34 nM; in [3], 80 nM; in test [4] it was 149 nM; in test [5], 396 nM; in [6], at most 2 nM. In addition, the IC50 was at most 2 nM in test [7]; at most 2 nM in [8]; 24 nM in test [9]; 4810 nM in test [10]; 7 nM in [11].

Regarding `CCc1c(F)ccc2cc(O)cc(-c3ncc4c(N5CCCn6nc(C(=O)N7CCOCC7)cc6C5)nc(OC[C@@]56CCCN5C[C@H](F)C6)nc4c3F)c12` [Example 354, (5-(7-(8-ethyl-7-fluoro-3-hydroxynaphthalen-1-yl)-8-fluoro-2-(((2R,7aS)-2-fluorohexahydro-1H-pyrrolizin-7a-yl)methoxy)pyrido[4,3-d]pyrimidin-4-yl)-5,6,7,8-tetrahydro-4H-pyrazolo[1,5-a][1,4]diazepin-2-yl)(morpholino)methanone], the IC50 in [1] was 17 nM; in test [2], 48 nM; in test [3], 65 nM; in test [4], 304 nM; in [5] it was 623 nM; in [6] it was at most 2 nM. Further, the IC50 in test [7] is at most 2 nM; in test [8], at most 2 nM; in test [9] it was 14 nM; in test [10], at least 10000 nM; in test [11] it was 14 nM.

In the case of `CCc1c(F)ccc2cc(O)cc(-c3ncc4c(N5CCCn6nc(C(=O)N7CCCC7)cc6C5)nc(OC[C@@]56CCCN5C[C@H](F)C6)nc4c3F)c12` [Example 355, (5-(7-(8-ethyl-7-fluoro-3-hydroxynaphthalen-1-yl)-8-fluoro-2-(((2R,7aS)-2-fluorohexahydro-1H-pyrrolizin-7a-yl)methoxy)pyrido[4,3-d]pyrimidin-4-yl)-5,6,7,8-tetrahydro-4H-pyrazolo[1,5-a][1,4]diazepin-2-yl)(pyrrolidin-1-yl)methanone], the half-maximal inhibitory concentration (IC50) in test [1] is 16 nM; in [2] it was 30 nM; in test [3], 140 nM; in [4], 270 nM; in test [5], 471 nM; in test [6] it was at most 2 nM. Also, the IC50 in [7] was at most 2 nM; in [8], at most 2 nM; in test [9] it was 17 nM; in test [10], 6770 nM; in [11], 8 nM.

Regarding `CCNC(=O)c1cc2n(n1)CCCN(c1nc(OC[C@@]34CCCN3C[C@H](F)C4)nc3c(F)c(-c4cc(O)cc5ccc(F)c(CC)c45)ncc13)C2` [Example 356, N-ethyl-5-(7-(8-ethyl-7-fluoro-3-hydroxynaphthalen-1-yl)-8-fluoro-2-(((2R,7aS)-2-fluorohexahydro-1H-pyrrolizin-7a-yl)methoxy)pyrido[4,3-d]pyrimidin-4-yl)-5,6,7,8-tetrahydro-4H-pyrazolo[1,5-a][1,4]diazepine-2-carboxamide], the IC50 in test [1] is 20 nM; in [2], 63 nM; in test [3], 232 nM; in [4], 458 nM; in test [5], 767 nM; in test [6], at most 2 nM. Further, the half-maximal inhibitory concentration (IC50) was at most 2 nM in [7]; at most 2 nM in test [8]; 40 nM in test [9]; 9300 nM in test [10]; 16 nM in test [11].

As for `CCc1c(F)ccc2cc(O)cc(-c3ncc4c(N5CCCn6nc(C(=O)NC(C)C)cc6C5)nc(OC[C@@]56CCCN5C[C@H](F)C6)nc4c3F)c12` [Example 357, 5-(7-(8-ethyl-7-fluoro-3-hydroxynaphthalen-1-yl)-8-fluoro-2-(((2R,7aS)-2-fluorohexahydro-1H-pyrrolizin-7a-yl)methoxy)pyrido[4,3-d]pyrimidin-4-yl)-N-isopropyl-5,6,7,8-tetrahydro-4H-pyrazolo[1,5-a][1,4]diazepine-2-carboxamide], the half-inhibitory concentration (IC50) was 27 nM in [1]; 63 nM in test [2]; 576 nM in [3]; 805 nM in test [4]; 1350 nM in test [5]; at most 2 nM in [6]. Further, the IC50 in test [7] is at most 2 nM; in test [8], at most 2 nM; in test [9], 71 nM; in [10] it was 7480 nM; in [11] it was 13 nM.

Take `CCc1c(F)ccc2cc(O)cc(-c3ncc4c(N5CCCn6nc(C(=O)N(C)CC)cc6C5)nc(OC[C@@]56CCCN5C[C@H](F)C6)nc4c3F)c12` [Example 358, N-ethyl-5-(7-(8-ethyl-7-fluoro-3-hydroxynaphthalen-1-yl)-8-fluoro-2-(((2R,7aS)-2-fluorotetrahydro-1H-pyrrolizin-7a(5H)-yl)methoxy)pyrido[4,3-d]pyrimidin-4-yl)-N-methyl-5,6,7,8-tetrahydro-4H-pyrazolo[1,5-a][1,4]diazepine-2-carboxamide]: the IC50 in test [1] is 3 nM; in test [2] it was 15 nM; in [3] it was 44 nM; in test [4], 131 nM; in test [5], 167 nM; in [6], at most 2 nM. Moreover, the IC50 in test [7] was at most 2 nM; in test [8] it was at most 2 nM; in test [9], 4 nM; in [10], 9770 nM; in test [11], 12 nM.

For the compound `CCc1c(F)ccc2cc(O)cc(-c3ncc4c(N5CCOC[C@@](C)(O)C5)nc(OCC5(CN(C)C)CC5)nc4c3F)c12` [Example 361, (S)-4-(2-((1-((dimethylamino)methyl)cyclopropyl)methoxy)-7-(8-ethyl-7-fluoro-3-hydroxynaphthalen-1-yl)-8-fluoropyrido[4,3-d]pyrimidin-4-yl)-6-methyl-1,4-oxazepan-6-ol], the IC50 in test [1] is 17 nM; in [2] it was 49 nM; in [3], 122 nM; in test [4], 85 nM; in test [5] it was 231 nM; in [6], at most 2 nM. The IC50 was at most 2 nM in test [7]; at most 2 nM in [8]; 3 nM in test [9]; 6820 nM in test [10]; 8 nM in test [11].

Turning to `CCc1c(F)ccc2cc(O)cc(-c3ncc4c(N5CCC[C@@](C)(O)C5)nc(OC[C@]56CCCN5[C@@H](COC(=O)N(C)C)CC6)nc4c3F)c12` [Example 362, ((3R,7aR)-7a-(((7-(8-ethyl-7-fluoro-3-hydroxynaphthalen-1-yl)-8-fluoro-4-((R)-3-hydroxy-3-methylpiperidin-1-yl)pyrido[4,3-d]pyrimidin-2-yl)oxy)methyl)hexahydro-1H-pyrrolizin-3-yl)methyl dimethylcarbamate], the IC50 was found to be 113 nM in [1]; 313 nM in test [2]; 629 nM in test [3]; 404 nM in [4]; 763 nM in test [5]; 3 nM in test [6]. Moreover, the IC50 in [7] came to 3 nM; in test [8] it was 4 nM; in [9], 37 nM; in [10], 5130 nM; in test [11], 73 nM.

For `CCc1c(F)ccc2cc(O)cc(-c3ncc4c(N5CCCC6(CSC6)C5)nc(OC[C@@]56CCCN5C[C@H](F)C6)nc4c3F)c12` [Example 365, 5-ethyl-6-fluoro-4-(8-fluoro-2-(((2R,7aS)-2-fluorohexahydro-1H-pyrrolizin-7a-yl)methoxy)-4-(2-thia-6-azaspiro[3.5]nonan-6-yl)pyrido[4,3-d]pyrimidin-7-yl)naphthalen-2-ol], the IC50 in test [1] is 6 nM; in test [2], 24 nM; in [3] it was 11 nM; in test [4], 17 nM; in test [5], 77 nM; in [6] it was at most 2 nM. Further, the IC50 in test [7] was at most 2 nM; in test [8] it was at most 2 nM; in test [9] it was 10 nM; in test [10], 2860 nM; in test [11], 17 nM.
